Active and inactive are the calls of the source. The calls are words filed in the database; no cut-off is given here.
Key:
[1] = system: MIN6; assay: Cytotoxicity in mouse MIN6 cells assessed as caspase 3/7 activity at 100 uM incubated for 72 hrs by fluorescence assay; type: cell-based; settings: min6, 72 h
[2] = Cmax in CD-1 mouse at 90 mg/kg, po measured up to 8 hrs by LC-MS/MS analysis; type: ADME, organism-based; design: route oral, dose 90 mg/kg, time <=8; settings: in vivo
[3] = system: MIN6; assay: Effect on BSA-PA conjugate-induced lipo-toxicity in mouse MIN6 cells assessed as caspase 3/7 activity at 50 uM incubated for 72 hrs by fluorescence assay; type: functional, cell-based
[4] = biological target: T1, Free fatty acid receptor 1 (Homo sapiens, UniProt O14842); assay: Agonist activity at GPR40 (unknown origin) expressed in CHO cells co-expressing luc2P/CRE (Gs) assessed as firefly luciferase activity at 10 uM incubated for 24 hrs by Bright-Glo based […] luciferase reporter assay; type: functional, cell-based
[5] = biological target: T1, Free fatty acid receptor 1; assay: Agonist activity at GPR40 (unknown origin) expressed in CHO cells assessed as increase in cAMP level incubated for 30 mins by cAMP-Glo assay; type: functional, cell-based
[6] = Tmax in CD-1 mouse at 30 mg/kg, po measured up to 8 hrs by LC-MS/MS analysis; type: ADME, organism-based; settings: in vivo
[7] = biological target: T2, Peroxisome proliferator-activated receptor gamma (Homo sapiens, UniProt P37231); assay: Agonist activity at human PPARgamma expressed in CHO cells assessed as increase in receptor transcriptional activity incubated for 24 hrs by dual luciferase reporter gene assay; type: cell-based
T2 sequence (P37231 whole entry): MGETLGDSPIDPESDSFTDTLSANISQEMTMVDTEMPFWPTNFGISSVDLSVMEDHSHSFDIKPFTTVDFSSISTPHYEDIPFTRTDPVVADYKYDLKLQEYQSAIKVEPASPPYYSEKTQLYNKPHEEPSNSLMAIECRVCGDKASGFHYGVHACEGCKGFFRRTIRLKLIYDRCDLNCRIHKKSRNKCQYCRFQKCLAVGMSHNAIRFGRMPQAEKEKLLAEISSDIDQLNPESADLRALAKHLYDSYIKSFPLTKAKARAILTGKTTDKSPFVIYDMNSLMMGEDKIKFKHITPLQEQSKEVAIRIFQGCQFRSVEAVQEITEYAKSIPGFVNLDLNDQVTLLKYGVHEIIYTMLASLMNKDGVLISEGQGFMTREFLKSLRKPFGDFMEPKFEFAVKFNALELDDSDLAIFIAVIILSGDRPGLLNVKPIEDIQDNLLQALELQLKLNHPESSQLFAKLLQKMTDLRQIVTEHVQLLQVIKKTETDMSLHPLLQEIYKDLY

[8] = biological target: T1, Free fatty acid receptor 1; assay: Agonist activity at GPR40 (unknown origin) expressed in CHO cells co-expressing luc2P/SRE assessed as induction of TAK875-induced firefly luciferase activity incubated for 24 hrs by Bright-Glo based serum response element (SRE) luciferase reporter assay; type: functional, cell-based; settings: filed as positive allosteric modulator
[9] = Tlast in CD-1 mouse at 30 mg/kg, po measured up to 8 hrs by LC-MS/MS analysis; type: ADME, organism-based; settings: in vivo
[10] = Half life in CD-1 mouse at 30 mg/kg, po measured up to 8 hrs by LC-MS/MS analysis; type: ADME, organism-based; settings: in vivo
[11] = biological target: T1, Free fatty acid receptor 1; assay: Agonist activity at GPR40 (unknown origin) expressed in CHO cells co-expressing luc2P/SRE assessed as firefly luciferase activity at 10 uM incubated for 24 hrs hrs by Bright-Glo based serum response element (SRE) luciferase reporter assay relative to TAK875; type: functional, cell-based; settings: filed as positive allosteric modulator
[12] = biological target: T1, Free fatty acid receptor 1; assay: Agonist activity at GPR40 (unknown origin) expressed in CHO cells co-expressing luc2P/SRE (Gq) assessed as firefly luciferase activity at 10 uM incubated for 24 hrs by Bright-Glo based serum response element (SRE) luciferase reporter assay; type: functional, cell-based; settings: filed as positive allosteric modulator
[13] = MRTlast in CD-1 mouse at 30 mg/kg, po measured up to 8 hrs by LC-MS/MS analysis; type: ADME, organism-based; settings: in vivo
[14] = Tlast in CD-1 mouse at 10 mg/kg, po measured up to 8 hrs by LC-MS/MS analysis; type: ADME, organism-based; settings: in vivo
[15] = Tmax in CD-1 mouse at 100 mg/kg, po measured up to 8 hrs by LC-MS/MS analysis; type: ADME, organism-based; settings: in vivo
[16] = Half life in CD-1 mouse at 10 mg/kg, po measured up to 8 hrs by LC-MS/MS analysis; type: ADME, organism-based; settings: in vivo
[17] = Cmax in CD-1 mouse at 10 mg/kg, po measured up to 8 hrs by LC-MS/MS analysis; type: ADME, organism-based; design: route oral, dose 10 mg/kg, time <=8; settings: in vivo
[18] = Cmax in CD-1 mouse at 30 mg/kg, po measured up to 8 hrs by LC-MS/MS analysis; type: ADME, organism-based; design: route oral, dose 30 mg/kg, time <=8; settings: in vivo
[19] = AUC (0 to t) in CD-1 mouse at 90 mg/kg, po measured up to 8 hrs by LC-MS/MS analysis; type: ADME, organism-based; design: route oral, dose 90 mg/kg, time <=8; settings: in vivo
[20] = biological target: T3, Free fatty acid receptor 3 (Homo sapiens, UniProt O14843); assay: Agonist activity at FFAR3 (unknown origin); type: functional
T3 sequence (O14843 whole entry): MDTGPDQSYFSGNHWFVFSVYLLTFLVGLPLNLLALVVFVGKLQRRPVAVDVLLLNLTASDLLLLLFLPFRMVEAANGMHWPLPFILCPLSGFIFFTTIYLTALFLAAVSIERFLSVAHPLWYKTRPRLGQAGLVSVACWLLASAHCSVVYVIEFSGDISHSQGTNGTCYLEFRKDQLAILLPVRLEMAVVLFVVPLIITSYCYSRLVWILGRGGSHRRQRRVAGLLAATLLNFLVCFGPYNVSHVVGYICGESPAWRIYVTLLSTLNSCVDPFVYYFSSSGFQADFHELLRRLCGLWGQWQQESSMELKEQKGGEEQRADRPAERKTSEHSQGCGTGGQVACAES

[21] = system: STC1; assay: Induction of GLP-1 secretion in […] STC1 cells at 30 uM after 1 hrs by ELISA; type: functional, cell-based
[22] = Metabolic stability in mouse liver microsomes assessed as intrinsic clearance; type: ADME, Microsome; settings: read-out: CLH
[23] = Clast in CD-1 mouse at 10 mg/kg, po measured up to 8 hrs by LC-MS/MS analysis; type: ADME, organism-based; settings: in vivo, read-out: Clast
[24] = Clast in CD-1 mouse at 90 mg/kg, po measured up to 8 hrs by LC-MS/MS analysis; type: ADME, organism-based; settings: in vivo, read-out: Clast
[25] = biological target: T4, Free fatty acid receptor 2 (Homo sapiens, UniProt O15552); assay: Agonist activity at FFAR2 (unknown origin); type: functional
T4 sequence (O15552 whole entry): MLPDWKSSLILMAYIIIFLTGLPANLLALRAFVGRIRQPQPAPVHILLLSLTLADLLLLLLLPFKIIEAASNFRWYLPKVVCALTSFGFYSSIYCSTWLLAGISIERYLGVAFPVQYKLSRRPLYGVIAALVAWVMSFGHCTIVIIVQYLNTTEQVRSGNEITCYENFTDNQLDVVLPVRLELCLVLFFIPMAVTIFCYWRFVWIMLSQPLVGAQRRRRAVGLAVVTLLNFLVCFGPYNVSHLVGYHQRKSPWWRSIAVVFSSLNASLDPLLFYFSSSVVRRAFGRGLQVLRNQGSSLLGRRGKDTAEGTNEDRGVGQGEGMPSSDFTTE

[26] = AUC (0 to t) in CD-1 mouse at 30 mg/kg, po measured up to 8 hrs by LC-MS/MS analysis; type: ADME, organism-based; design: route oral, dose 30 mg/kg, time <=8; settings: in vivo

T1 sequence (O14842 whole entry): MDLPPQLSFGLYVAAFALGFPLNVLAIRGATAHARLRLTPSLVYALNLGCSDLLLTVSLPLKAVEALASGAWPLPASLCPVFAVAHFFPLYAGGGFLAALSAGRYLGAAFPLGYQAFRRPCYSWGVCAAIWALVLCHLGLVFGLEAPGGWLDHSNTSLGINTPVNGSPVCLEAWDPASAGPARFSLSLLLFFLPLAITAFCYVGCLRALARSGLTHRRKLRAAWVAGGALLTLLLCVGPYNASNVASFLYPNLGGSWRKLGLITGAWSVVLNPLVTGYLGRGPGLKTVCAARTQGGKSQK

With Cc1cc(F)ccc1-c1cc2cc(CCC(=O)O)ccc2[nH]1 the Activity [1] was “Non-Toxic”, the Cmax [2] was 10.3 µg/mL and the Activity [3] was “inactive”. For the same compound, the EC50 [4] was 0.521 µM, the EC50 [5] was 0.681 µM and the Tmax [6] was 0.44 h. For the same compound, the EC50 ([7]; read-out: EC50) was 56.9 µM, the Activity [8] was “Active” and the Tlast [9] was 8 h. For the same compound, the half-life [10] was 1.16 h, the Emax [11] was 111% and the Activity [12] was “Active”. The MRT last at 8 h [13] was 1.34 h, the Tlast [14] was 8 h and the Tmax [15] was 0.44 h. For the same compound, the half-life [16] was 1.3 h, the Cmax [17] was 3.74 µg/mL and the Cmax [18] was 28.7 µg/mL. The AUC(0-t) at 8 h [19] was 9.62 µg·h/mL, the EC50 [20] was over 25 µM and the Activity [21] was “Active”. It also gave a microsomal CLint [22] of at most 4 µL/min/mg, a concentration at 8 h [23] of 0.011 µg/mL and a concentration at 8 h [24] of 0.063 µg/mL. The EC50 [25] was over 25 µM and the AUC(0-t) at 8 h [26] was 38.7 µg·h/mL.
With Cc1ccc(C)c(-c2cc3cc(CCC(=O)O)ccc3[nH]2)c1 the Activity [1] was “Non-Toxic”, the Cmax [2] was 65 µg/mL and the Activity [3] was “inactive”. The EC50 [4] was 12.9 µM, the EC50 [5] was 7.53 µM and the Tmax [6] was 0.33 h. The EC50 ([7]; cho) was “Not Active”, the Activity [8] was “Active” and the Tlast [9] was 8 h. The half-life [10] was 1.33 h, the Emax [11] was 103% and the Activity [12] was “Active”. It also gave an MRT last at 8 h [13] of 1.24 h, a Tlast [14] of 8 h and a Tmax [15] of 0.44 h. The half-life [16] was 2.4 h, the Cmax [17] was 52.9 µg/mL and the Cmax [18] was 24 µg/mL. The AUC(0-t) at 8 h [19] was 186 µg·h/mL, the EC50 [20] was over 25 µM and the Activity [21] was “Active”. For the same compound, the microsomal CLint [22] was 10.5 µL/min/mg, the concentration at 8 h [23] was 1.25 µg/mL and the concentration at 8 h [24] was 2.68 µg/mL. The EC50 [25] was over 25 µM and the AUC(0-t) at 8 h [26] was 33.6 µg·h/mL.

Source: ChEMBL document CHEMBL4808171, “Structure-Activity Relationship Study and Biological Evaluation of 2-(Disubstituted phenyl)-indole-5-propanoic Acid Derivatives as GPR40 Full Agonists” (J Med Chem, 2021)
